Here are results for 2 compounds from ChEMBL document CHEMBL5352494, “Hybrid molecules combining GABA-A and serotonin 5-HT6 receptors activity designed to tackle neuroinflammation associated with depression” (Eur J Med Chem, 2023).

The nature of data set [1]: in vitro. The following applies: human, Caco-2.
Data set [2] can be described thus: in vitro. The settings on record: rat, liver microsomes. In general terms: Liver microsomes are vesicles of endoplasmic reticulum, rich in cytochrome P450 enzymes.

Broadly, the Papp A→B is how fast a substance crosses the layer from the apical side. The low end stands for poor permeation, the high end for ready permeation. The term half-life denotes how long it takes for the measured level to halve.

In data set [1], `CNC(=C[N+](=O)[O-])NCCSCc1ccc(CN(C)C)o1` [RANITIDINE] had a Papp A→B at 10 µM of 0.3 ×10⁻⁶ cm/s.

Regarding `CC(C)NCC(O)COc1cccc2ccccc12` (configuration not stated) [PROPRANOLOL], the half-life at 0.1 µM in data set [2] was > 1 h.
